Results reported in patent US5658925A, “Aminobenzoic acid derivatives” (Eisai Co., Ltd., priority 1993, dated 1997).
Where a name gives a salt, the structure may show the parent alone. Read-outs that look alike come from different tables or passages of the source.

What was measured:
serotonin 3 = target: T1, serotonin 3 (Cavia porcellus, UniProt O70212); assay: Antagonism against 2-methyl-serotonin-induced contraction of ileum (serotonin 3 antagonism); format: cell-based, guinea pig (Hartley male); settings: vs 2-methylserotonin, 30 minutes with test compound, 37° C.
T1 construct: from tissue; host or cells: nonterminal ileum of Hartley male guinea pig
T1 sequence (O70212 20-490): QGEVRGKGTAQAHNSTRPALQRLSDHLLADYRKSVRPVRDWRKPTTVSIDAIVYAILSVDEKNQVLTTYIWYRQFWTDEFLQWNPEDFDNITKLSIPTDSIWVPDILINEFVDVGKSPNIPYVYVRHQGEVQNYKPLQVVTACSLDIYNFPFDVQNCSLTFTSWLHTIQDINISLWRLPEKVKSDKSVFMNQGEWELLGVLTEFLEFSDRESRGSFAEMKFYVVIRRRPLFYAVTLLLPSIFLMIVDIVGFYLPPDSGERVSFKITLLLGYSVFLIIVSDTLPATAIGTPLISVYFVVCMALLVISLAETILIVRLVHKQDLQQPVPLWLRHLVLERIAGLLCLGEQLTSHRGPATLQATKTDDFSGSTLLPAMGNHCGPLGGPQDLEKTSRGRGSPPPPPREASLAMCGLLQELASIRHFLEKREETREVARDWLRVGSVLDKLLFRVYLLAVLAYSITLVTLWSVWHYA
Protocol: [Experimental Example 1] Antagonism against 2-methyl-serotonin-induced contraction of ileum (serotonin 3 antagonism)
This experiment was made according to the method of Sanger et al. [see Eur. J. Pharmacol., 159, 113-124 (1989)]. The nonterminal ileum of a Hartley male guinea pig was suspended in the Krebs solution (37° C.) by applying a load of 0.5 g, and a gaseous mixture comprising 95% of oxygen and 5% of carbon dioxide was passed through the solution. The contraction of the ileum was isometrically determined. After allowing the ileum to stand for one or more hours for stabilization, a solution of a test compound was added to the solution, and after 30 minutes, 2-methylserotonin was noncumulatively added. The pA2 value was calculated from the rightward shift of the dose-response curve of the 2-methylserotonin-induced contraction caused by the test compound according to the method of Rossum et al. [see Arch. Int. Pharmacodyn. 143, 299(1963)]. BRL 24924 (Renzapride) was used as a control in this experiment.
The structural formula of BRL 24924 is as follows: [drawing 19]

[1] = system: cisplatin-induced vomiting; assay: Activity against cisplatin-induced vomiting of beagle; format: in vivo; settings: through the vein of forefoot, one hour after 3 mg/kg cisplatin, 5-hour period
Protocol: [Experimental Example 2] Activity against cisplatin-induced vomiting of beagle
Beagles weighing 7 to 12 kg were used. 3 mg/kg of cisplatin (a product of Sigma) (1 ml/kg of physiological saline) was administered to each beagle through the vein of one of its forefeet. One hour after the administration, physiological saline (0.2 ml/kg) was administered to a control group of beagles and a solution of a test compound in physiological saline was administered to a test group of beagles, each through the vein of the other forefoot. The frequency of vomiting observed over a 5-hour period from the administration of cisplatin was recorded and the inhibitory ratio of the test compound was calculated according to the following formula.

[2] = system: gastric emptying function; assay: Activity for increasing gastric emptying function; format: in vivo, rat (Fischer male); settings: oral, one hour before test food, *: minimum effective dose
Protocol: [Experimental Example 3] Activity for increasing gastric emptying function
This experiment was made according to the method of Decktor et al. [see Eur. J. Pharmacol., 147, 313-316 (1988)]. Fischer male rats (weight: 160 to 180 g) were fasted for 18 hours before 3 ml of a test food comprising methylcellulose, beef bouillon, casein, sugar and corn starch was orally administered to each rat. One hour after the administration, the stomach was extirpated from each rat. The gastric emptying ratio was calculated from the weight of the test food remaining in the stomach. The percentage increment of the gastric emptying function was determined by comparing the gastric emptying ratio of a medicated rat with that of a control rat. Each test compound (5 ml/kg) was orally administered one hour before the administration of the test food. BRL 24924 was used as a control in this experiment.

serotonin 4 = target: T2, serotonin 4 (Rattus norvegicus, UniProt Q62758); assay: Effect of relaxing the contraction of muscular layer of esophageal mucosa of rat by stimulation with carbachol (activity of serotonin 4 as agonist); format: cell-based
T2 construct: The esophagus of a rat was extirpated and freed from the outer tunica propria to obtain the muscular layer of mucosa; from tissue; host or cells: muscular layer of mucosa of rat esophagus
T2 sequence (Q62758 whole entry): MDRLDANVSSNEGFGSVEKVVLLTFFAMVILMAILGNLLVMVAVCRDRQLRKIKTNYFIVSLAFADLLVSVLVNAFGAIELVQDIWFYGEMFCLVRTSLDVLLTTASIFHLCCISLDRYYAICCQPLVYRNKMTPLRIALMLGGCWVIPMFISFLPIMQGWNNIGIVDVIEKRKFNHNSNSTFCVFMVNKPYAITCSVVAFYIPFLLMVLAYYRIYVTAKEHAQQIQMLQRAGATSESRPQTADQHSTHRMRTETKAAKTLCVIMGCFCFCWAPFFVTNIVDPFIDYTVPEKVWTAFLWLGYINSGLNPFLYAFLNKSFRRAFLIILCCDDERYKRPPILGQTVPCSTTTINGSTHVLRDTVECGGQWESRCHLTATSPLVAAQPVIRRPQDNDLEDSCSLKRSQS
Protocol: This experiment was made according to the method of Baxter et al. [see Naunyn-Schmiedeberg's Arch. […] The esophagus of a rat was extirpated and freed from the outer tunica propria to obtain the muscular layer of mucosa. […] A load of 0.5 g was applied to each sample and the reaction was recorded isometrically. 1 μM of carbachol was added to each sample to cause contraction, followed by the cumulative addition thereto of a solution of a test compound. The effect of the test compound was determined as the ratio (%) of relaxation based on the maximum contraction caused by carbachol.

[3] = guinea pig nonterminal ileum, read-out: pA2 (converted)
[4] = 50% relaxation of maximum contraction caused by 1 μM carbachol, cumulative addition, 37° C., read-out: Effect of relaxing the muscular layer of esophageal mucosa of rat EC50
[5] = pA2, guinea pig nonterminal ileum

| SMILES | Percentage increment of gastric emptying function (%) ([2]; 0.03 mg/kg) | Percentage increment of gastric emptying function (%) ([2]; 0.1 mg/kg) | Percentage increment of gastric emptying function (%) ([2]; 0.3 mg/kg) | EC50 (serotonin 4; [4]) | also measured |
| --- | --- | --- | --- | --- | --- |
| CC#C[C@H](C)Oc1cc(N)c(Cl)cc1C(=O)NC1CCN2CCOC1C2 (single isomer, unassigned) [20 fraction 1] | 8.9% | 22.9% | 11.5% | 60 nM | Kb (serotonin 3; [3]): 63.1 nM; Inhibitory ratio against cisplatin-induced vomiting (%) ([1]; 0.1 mg/kg): 22%; Percentage increment of gastric emptying function (%) ([2]; 0.01 mg/kg): 3.9% |
| CC#C[C@H](C)Oc1cc(N)c(Cl)cc1C(=O)NC1CCN2CCOC1C2 (single isomer, unassigned) [20 fraction 2] | 14.0% | 23.3% | 21.8% | 33 nM | Kb (serotonin 3; [3]): 12.6 nM; Inhibitory ratio against cisplatin-induced vomiting (%) ([1]; 0.03 mg/kg): 14%; Inhibitory ratio against cisplatin-induced vomiting (%) ([1]; 0.1 mg/kg): 24% |
| CC#C[C@H](C)Oc1cc(N)c(Cl)cc1C(=O)NC1CC2CC(OC)C(C1)N2C (single isomer, unassigned) [28 fraction 1] | – | – | – | > 10000 nM | – |
| CC#C[C@H](C)Oc1cc(N)c(Cl)cc1C(=O)NC1CC2CC(OC)C(C1)N2C (single isomer, unassigned) [28 fraction 2] | – | – | – | > 10000 nM | – |
| CC#C[C@H](C)Oc1cc(N)c(Cl)cc1C(=O)NC1CCN2CCCC1C2 (single isomer, unassigned) [31 fraction 1] | 0.8% | 0.8% | 14.1% | 44 nM | Kb (serotonin 3; [3]): 63.1 nM |
| CC#C[C@H](C)Oc1cc(N)c(Cl)cc1C(=O)NC1CCN2CCCC1C2 (single isomer, unassigned) [31 fraction 2] | 24.6% | 25.8% | 33.2% | 190 nM | Kb (serotonin 3; [3]): 5.01 nM; Inhibitory ratio against cisplatin-induced vomiting (%) ([1]; 0.03 mg/kg): 63%; Inhibitory ratio against cisplatin-induced vomiting (%) ([1]; 0.1 mg/kg): 92%; Percentage increment of gastric emptying function (%) ([2]; 0.01 mg/kg): 4.5% |
| CC#C[C@H](C)Oc1cc(N)c(Cl)cc1C(=O)NC1CCC2CCC1N2C (single isomer, unassigned) [53 fraction 2-1] | 22.2% | 26.7% | 29.0% | 300 nM | Kb (serotonin 3; [5]): 2.51 nM; Percentage increment of gastric emptying function (%) ([2]; 0.01 mg/kg): 14.4% |
| CC#C[C@H](C)Oc1cc(N)c(Cl)cc1C(=O)NC1CCC2CCC1N2C (single isomer, unassigned) [53 fraction 2-2] | 6.6% | 21.3% | 28.8% | 180 nM | Kb (serotonin 3; [5]): 12.6 nM |
| CC#C[C@H](C)Oc1cc(N)c(Cl)cc1C(=O)NC1CCC2CCC1N2C (single isomer, unassigned) [53 fraction 2] | – | 14.4% | 16.1% | 310 nM | – |
| COc1cc(N)c(Cl)cc1C(=O)NC1CCN2CCCC1C2 (centres unmarked) [BRL 24924, Renzapride, reference compound] | – | 1.9% | 6.5% | 300 nM | Kb (serotonin 3; [3]): 251 nM; Inhibitory ratio against cisplatin-induced vomiting (%) ([1]; 0.03 mg/kg): 19%; Inhibitory ratio against cisplatin-induced vomiting (%) ([1]; 0.1 mg/kg): 61%; Percentage increment of gastric emptying function (%) ([2]; 1 mg/kg): 18.5% |
| CC#C[C@H](C)Oc1cc(N)c(Cl)cc1C(=O)NC1CC2COCC(C1)N2C (some centres unmarked) [Example 2] | 19.7% | 19.8% | 30.6% | – | Inhibitory ratio against cisplatin-induced vomiting (%) ([1]; 0.03 mg/kg): 14%; Inhibitory ratio against cisplatin-induced vomiting (%) ([1]; 0.1 mg/kg): 53%; Percentage increment of gastric emptying function (%) ([2]; 0.01 mg/kg): 20.5%; EC50 (serotonin 4): 82 nM |
| CC#C[C@H](C)Oc1cc(N)c(Cl)cc1C(=O)NC1CC2CCCC(C1)N2C (some centres unmarked) [Example 4, hydrochloride] | – | – | – | 1300 nM | – |
| CC#C[C@H](C)Oc1cc(N)c(Cl)cc1C(=O)NC1CCN2CCCC1C2 (stereo partly drawn) [Example 6, N-(1-Azabicyclo[3.3.1]non-4α-yl)-4-amino-5-chloro-2-((S-1-methyl-2-butynyl/oxybenzamide hydrochloride] | – | – | – | 110 nM | Kb (serotonin 3; [3]): 20 nM; Inhibitory ratio against cisplatin-induced vomiting (%) ([1]; 0.1 mg/kg): 77% |
| CC#C[C@H](C)Oc1cc(N)c(Cl)cc1C(=O)NC1CCN2CCOC1C2 (stereo partly drawn) [Example 15, N-(4-Oxa-1-azabicyclo[3.3.1]non-6α-yl)-4-amino-5-chloro-2-((S)-1-methyl-2-butynyl/oxybenzamide hydrochloride] | – | 24.6% | 30.6% | 35 nM | – |
| CC#C[C@H](C)Oc1cc(N)c(Cl)cc1C(=O)NC1CC2CN(C)CC(C1)N2C (stereo partly drawn) [Example 19, (S)-N-(3,9-Dimethyl-3,9-diazabicyclo[3.3.1]non-7α-yl)-4-amino-5-chloro-2-(1-methyl-2-butynyl/oxybenzamidedihydrochloride] | – | – | – | > 10000 nM | – |
| CC#C[C@H](C)Oc1cc(N)c(Cl)cc1C(=O)NC1CC2CCC(C1)N2 (some centres unmarked) [Example 29] | – | – | – | > 10000 nM | – |
| CC#C[C@H](C)Oc1cc(N)c(Cl)cc1C(=O)NC1C2CCC1CN(C)C2 (stereo partly drawn) [Example 35, (S)-N-(3-Methyl-3-azabicyclo[3.2.1]oct-8α-yl) -4-amino-5-chloro-2-(1-methyl-2-butynyl)oxybenzamide hydrochloride] | – | – | – | 2000 nM | – |
| CC#CC(CCOCC)Oc1cc(N)c(Cl)cc1C(=O)NC1CC2CCC(C1)N2C (stereo not drawn) [Example 42, N-(8Methyl-8-azabicylo[3.2.1]oct-3α-yl)-4-amino-5-chloro-2-(1-ethoxyethyl-2-butynyl]oxybenzamide hydrochloride] | – | – | – | 6200 nM | – |
| CC#C[C@H](C)Oc1cc(N)c(Cl)cc1C(=O)NC1C2CN(C)CC1CN(C)C2 (stereo partly drawn) [Example 44, (S)-N-(3,7-Dimethyl-3,7-diazabicyclo[3.3.1]non-9-yl)-4-amino-5-chloro-2-(1-methyl-2-butynyl)oxybenzamide hydrochloride] | – | – | – | – | EC50 (serotonin 4): 110 nM |
| CC#C[C@H](C)Oc1cc(N)c(Cl)cc1C(=O)NC1CC2CC(OCC)CC(C1)N2C (stereo partly drawn) [Example 50, (S)-N-(3-Ethoxy-9-methyl-9-azabicyclo[3.3.1]-1non-9α- or 9β-yl)-4-amino-5-chloro-2-(1-methyl-2-butynyl)oxybenzamide hydrochloride] | – | – | – | > 10000 nM | – |
| CC#C[C@H](C)Oc1cc(N)c(Cl)cc1C(=O)NC1C2CC3CC1CN(C3)C2 (stereo partly drawn) [Example 55, (S)-N-(1-Azatricyclo[3.3.1.1^3,7]dec-10-yl)-4-amino-5-chloro-(1-methyl-2-butynyl)oxybenzamide hydrochloride] | – | – | – | 640 nM | – |
